Data as given in US9358228B2, “Therapeutic combinations of netupitant and palonosetron” (Helsinn Healthcare SA, priority 2011, dated 2016).

Columns and labels:
Assay type in all cases: in vivo, rat
[1] = tested on: SNL rats; experiment: Behavioural assessment of the neuropathic state: paw withdrawal to von Frey filaments and acetone; conditions: for Paw Withdrawal Frequency (PWD), 2 g vF Filament / Paw Withdrawal Frequency (PWD), 6 g vF Filament / Paw Withdrawal Frequency (PWD), Cooling Acetone: mean ± S.E.
Description: A model of experimental neuropathic pain with symptoms of allodynia and hyperalgesia was established by tightly ligating the L5 and L6 spinal nerves as previously described (Kim and Chung, 1992). Within a sterile theatre, rats weighing approximately 130-150 g were anaesthetised (1:1 O2:N2O, 3% halothane for induction, 1% maintenance) and following a small left-side incision at approximately L4-S2, paraspinal muscle and fat was removed from spinous processes. Part of the L6 traverse process was clipped with rangeurs to expose the parallel-lying L4 and L5 spinal nerves. The L5 nerve was isolated and hooked with a finely-pulled glass rod and tightly tied with non-absorbable 6-0 silk thread distal to the dorsal root ganglion (and proximal to the formation of the sciatic nerve). The L6 nerve was then hooked from under the sacrum and tied in a similar way. Haemostasis was confirmed and the wound was sutured with 3-0 absorbable silk. The surrounding skin was pulled together and secured over the injury with wound clips. Rats recovered in an incubator, and once it had been confirmed that they had no observable motor impairment in their left hindpaw, were re-housed in cages as above. Sham surgery was performed in the same environment and under the same conditions except nerves were not hooked or ligated.
On post-operative days 2, 7, 9 and 14, behavioural signs of punctate mechanical and cooling hypersensitivity were assessed in the left ipsilateral hindpaw relative to the right contralateral hindpaw in awake and alert rats. Rats were individually placed in clear acrylic cubes on an elevated floor of wire mesh, and following a period of acclimation (30 minutes), mechanical sensitivities were determined by paw withdrawal to von Frey (vF) filaments with bending forces 2 g and 6 g (tested in consecutive, ascending force). Each filament was applied to the plantar surface of the paw for ˜2-3 s with enough force to cause buckling, and for each animal this was repeated 10 times at set positions on each paw. […] Cold hypersensitivity was assessed by applying a drop of acetone to each paw 5 times during each testing period, with each application separated by an interval of at least 5 minutes. Withdrawal frequency was quantified as =(number of foot withdrawals/10 or 5 trials as appropriate).

[2] = tested on: acetic acid (AA)-induced colonic hypersensitivity in a rodent model; experiment: Colonic sensitivity assessment: visceromotor response to colorectal distension after acetic acid infusion; conditions: rats; for inhibition of AA-induced colonic hypersensitivity, agent alone: oral, effective dose not given (0.001-1 mg/kg dosed); for effect of 0.001 mg/kg dose alone on colonic and somatic sensitivity: 0.001 mg/kg p.o., agent alone
Experimental: Induction of Acute Visceral and Somatic Hypersensitivity: Visceral and somatic hypersensitivity were induced by infusing dilute (1.5 ml at 0.6%) acetic acid (AA) into the rat colon via a catheter (Intramedic PE 90 tubing) inserted via the anus to the level of the mid-colon. Within 60 mins colonic and somatic hypersensitivity was evident.
Colonic Sensitivity Assessment: Visceromotor responses (VMR) to colorectal distension (CRD) were measured by counting the number of abdominal contractions in response to increasing levels of CRD (0-60 mmHg). On the day of the colonic sensitivity assessment, a minor surgical procedure was performed to attach a strain gauge force transducer onto the abdominal oblique muscle and attached via an adapter cable to a Grass Model 7 Polygraph. The cable was connected to a Model 7P1 Low-Level DC Pre-Amp. The Pre-Amp was set at 0.02 mV/cm sensitivity and was connected to a Model 7DA DC Driver Amp with sensitivity set at […]. A 5 cm latex balloon was inserted into the distal colon. The balloon cannula was connected to a Distender Series IIR barostat (G & J Electronics Inc.) for controlled, isobaric inflation of the balloon and CRD using constant pressure (isobaric) tonic distensions were conducted at 0, 20, 40 and 60 mmHg. Each pressure was maintained for a period 10 min. during which time the number of abdominal muscle contractions were counted. A 10 min. recovery period was allowed between the each distension.
Test Compounds: Following surgery, rats were pre-dosed with Palonosetron (1-hr pre-dose), Netupitant (2-hr pre-dose) or methyl cellulose vehicle. Palonosetron and Netupitant were supplied by Helsinn Healthcare Inc. and were stored at 4° C. until prepared for dosing as a suspension in 1% methyl cellulose solution. The drug suspensions were prepared so that each rat received an oral dosing volume of 0.5 ml per 100 g body weight for doses of 0.001, 0.01, 0.1 or 1 mg/kg. Compounds were prepared fresh on the day of use.
Statistical Analysis: To determine statistical significance between multiple control and treatment groups, data was compared using one-way ANOVA followed by a Bonferroni post-test. Results were deemed significant when p-values were less than 0.05.

[3] = tested on: acetic acid (AA)-induced somatic hypersensitivity in a rodent model; experiment: Somatic sensitivity assessment: von Frey hind paw withdrawal after intracolonic acetic acid; conditions: rats; for inhibition of AA-induced somatic hypersensitivity, agent alone: oral, effective dose not given (0.001-1 mg/kg dosed); for effect of 0.001 mg/kg dose alone on somatic hypersensitivity: 0.001 mg/kg oral, agent alone
Experimental: Induction of Acute Visceral and Somatic Hypersensitivity: Visceral and somatic hypersensitivity were induced by infusing dilute (1.5 ml at 0.6%) acetic acid (AA) into the rat colon via a catheter (Intramedic PE 90 tubing) inserted via the anus to the level of the mid-colon. Within 60 mins colonic and somatic hypersensitivity was evident. Somatic Sensitivity Assessment: Von Frey filaments were used to determine the level of somatic sensitivity in all animals receiving intracolonic infusion of AA. The Von Frey instrument measures the level of somatic sensitivity by recording the minimal force required to elicit hind paw withdrawal. The animals were placed in a mesh-bottomed Von Frey caging apparatus and a nylon filament was steadily pushed against the rat's foot pad until withdrawal of the hind paw. The force in grams which elicited hind paw withdrawal was then recorded. Test Compounds: Following surgery, rats were pre-dosed with Palonosetron (1-hr pre-dose), Netupitant (2-hr pre-dose) or methyl cellulose vehicle. Palonosetron and Netupitant were supplied by […] Healthcare Inc. and were stored at 4° C. until prepared for dosing as a suspension in 1% methyl cellulose solution. The drug suspensions were prepared so that each rat received an oral dosing volume of 0.5 ml per 100 g body weight for doses of 0.001, 0.01, 0.1 or 1 mg/kg. Compounds were prepared fresh on the day of use. Statistical Analysis: To determine statistical significance between multiple control and treatment groups, data was compared using one-way ANOVA followed by a Bonferroni post-test. Results were deemed significant when p-values were less than 0.05.

**Q.** What does the source list for `Cl.O=C1c2cccc3c2[C@H](CCC3)CN1[C@@H]1CN2CCC1CC2` [Palo, (3aS)-2-[(S)-1-Azabicyclo[2.2.2]oct-3-yl]-2,3,3a,4,5,6-hexahydro-1-oxo-1Hberiz[de]isoquinoline]?
**A.** effect on the number of paw withdrawals to vF 2 g, vF 6 g and acetone ([1]; FIG. 2, seen in the SNL rats only): dose related reduction; Paw Withdrawal Frequency (PWD), 2 g vF Filament ([1]; SNL rats, Palo 0.03 mg/kg s.c.): 2.8 ± 0.8; Paw Withdrawal Frequency (PWD), 6 g vF Filament ([1]; SNL rats, Palo 0.03 mg/kg s.c.): 5.2 ± 1.5; Paw Withdrawal Frequency (PWD), Cooling Acetone ([1]; SNL rats, Palo 0.03 mg/kg s.c.): 1.2 ± 0.4; Paw Withdrawal Frequency (PWD), 2 g vF Filament ([1]; SNL rats, Palo 0.3 mg/kg s.c.): 3.1 ± 0.7; Paw Withdrawal Frequency (PWD), 6 g vF Filament ([1]; SNL rats, Palo 0.3 mg/kg s.c.): 4.1 ± 1.3; Paw Withdrawal Frequency (PWD), Cooling Acetone ([1]; SNL rats, Palo 0.3 mg/kg s.c.): 1.2 ± 0.5; Paw Withdrawal Frequency (PWD), 2 g vF Filament ([1]; SNL rats, Palo 3 mg/kg s.c.): 1.4 ± 0.6; Paw Withdrawal Frequency (PWD), 6 g vF Filament ([1]; SNL rats, Palo 3 mg/kg s.c.): 1.1 ± 0.4; Paw Withdrawal Frequency (PWD), Cooling Acetone ([1]; SNL rats, Palo 3 mg/kg s.c.): 1.9 ± 0.3; inhibition of AA-induced colonic hypersensitivity, agent alone [2]: significantly inhibited; effect of 0.001 mg/kg dose alone on colonic and somatic sensitivity [2]: non-effective; inhibition of AA-induced somatic hypersensitivity, agent alone [3]: significantly inhibited; effect of 0.001 mg/kg dose alone on somatic hypersensitivity [3]: non-effective

**Q.** Which results are given for `Cc1ccccc1-c1cc(N2CCN(C)CC2)ncc1N(C)C(=O)C(C)(C)c1cc(C(F)(F)F)cc(C(F)(F)F)c1` [Netu, 2-[3,5-bis(trifluoromethyl)phenyl]-N,2-dimethyl-N-[4-(2-methylphenyl)-6-(4-methylpiperazin-1-yl)pyridin-3-yl]propanamide]?
**A.** effect on behavioral hypersensitivities (withdrawal responses to vF2 g, vF6 g, acetone) ([1]; FIG. 7, SNL rats, 1 mg/kg): appears to inhibit behavioral hypersensitivities; Paw Withdrawal Frequency (PWD), 2 g vF Filament ([1]; SNL rats, Netu 0.1 mg/kg s.c.): 4.1 ± 1.0; Paw Withdrawal Frequency (PWD), 6 g vF Filament ([1]; SNL rats, Netu 0.1 mg/kg s.c.): 6.7 ± 1.8; Paw Withdrawal Frequency (PWD), Cooling Acetone ([1]; SNL rats, Netu 0.1 mg/kg s.c.): 1.9 ± 0.3; Paw Withdrawal Frequency (PWD), 2 g vF Filament ([1]; SNL rats, Netu 1 mg/kg s.c.): 3.8 ± 1.2; Paw Withdrawal Frequency (PWD), 6 g vF Filament ([1]; SNL rats, Netu 1 mg/kg s.c.): 6.2 ± 1.5; Paw Withdrawal Frequency (PWD), Cooling Acetone ([1]; SNL rats, Netu 1 mg/kg s.c.): 2.7 ± 0.5; Paw Withdrawal Frequency (PWD), 2 g vF Filament ([1]; SNL rats, Netu 10 mg/kg s.c.): 3.9 ± 1.1; Paw Withdrawal Frequency (PWD), 6 g vF Filament ([1]; SNL rats, Netu 10 mg/kg s.c.): 5.9 ± 1.0; Paw Withdrawal Frequency (PWD), Cooling Acetone ([1]; SNL rats, Netu 10 mg/kg s.c.): 2.0 ± 0.4; effect in animal models of allodynia/neuropathic pain, agent alone ([1]; agent alone): zero or minimal effect; inhibition of AA-induced colonic hypersensitivity, agent alone [2]: significantly inhibited; effect of 0.001 mg/kg dose alone on colonic and somatic sensitivity [2]: non-effective; inhibition of AA-induced somatic hypersensitivity, agent alone [3]: significantly inhibited; effect of 0.001 mg/kg dose alone on somatic hypersensitivity [3]: non-effective
